According to US20130122024A1, “NEW BINDER-DRUG CONJUGATES (ADCS) AND USE THEREOF” (Bayer Intellectual Property GmbH, priority 2011, published 2013):

Experiments:
Caco-2 cells = assay: Caco-2 flux assay for cell permeability; format: in vitro ADME; settings: 2 hours, B to A
Experimental: The cell permeability of a substance can be investigated by means of in vitro testing in a flux assay using Caco-2 cells [M. D. Troutman and D. R. Thakker, Pharm. Res. 20 (8), 1210-1224 (2003)]. For this purpose, the cells were cultured for 15-16 days on 24-well filter plates. For the determination of permeation, the respective working example was applied in a HEPES buffer to the cells either apically (A) or basally (B) and incubated for 2 hours. After 0 hours and after 2 hours, samples were taken from the cis and trans compartments. The samples were separated by HPLC (Agilent 1200, Böblingen, Germany) using reverse phase columns. The HPLC system was coupled via a Turbo Ion Spray Interface to a Triple Quadropol mass spectrometer API 4000 (Applied Biosystems Applera, Darmstadt, Germany). The permeability was evaluated on the basis of a Papp value, which was calculated using the formula published by Schwab et al. [D. Schwab et al., J. Med. Chem. 46, 1716-1725 (2003)].

tubulin = assay: Fluorescence-based microtubule (tubulin) polymerization assay; format: biochemical
Experimental: Tubulin polymerization was investigated using the “Fluorescence-based Microtubule Polymerisation Assay Kit” from Cytoskeleton (Denver, Colo., USA; order number: BK011). With this assay, GTP is added to unpolymerized tubulin, allowing polymerization to take place spontaneously. The assay is based on the binding of the fluorophore 4′,6-di-amidino-2-phenylindole (DAPI) to tubulin. Free and bound DAPI can be differentiated on the basis of different emission spectra.
[…] In addition to the buffer control, paclitaxel, with a polymerization-increasing effect, and vinblastin, with a polymerization inhibiting effect, were run additionally as assay controls. Measurement was carried out using 96-well plates with a half base area. The kinetics of the tubulin polymerization were monitored in a Fluorimeter at 37° C. for 1 hour. The excitation wavelength was 355 nm, and emission was monitored at 460 nm. For the region of linear increase within the first 10 minutes, a calculation was made of the change in fluorescence per minute (ΔF/min), which represents the polymerization rate of the microtubuli. The potency of the test substances was quantified on the basis of their respective reduction of the polymerization rate.
The reduction in the tubulin polymerization rate occurs in dependence on the concentration of the test substance added.

[1] = Pharmacokinetics in the HT29 tumour model, non-transfected tumours; format: in vivo; settings: after i.v. 16 mg/kg of Example 5; animals with nontransfected tumours
Experimental: Following intravenous administration of 16 mg/kg of Example 5, the plasma concentrations and tumour concentrations of Example 5 and also of potential metabolites such as, for example, of Example 64 were measured. […] In contrast, the AUC in the tumour in the nontransfected animals was about 8 times lower than in the transfected animals.
The measurement of the compound from Example 64 in plasma and tumour took place following precipitation of the proteins with methanol, by means of high-pressure liquid chromatography (HPLC) coupled to a tandem mass spectrometer (MS).
For the processing of 100 μL of plasma, it was admixed with 400 μL of methanol and 10 μL of internal standard (ISTD, 50 ng/mL in methanol) and shaken for 10 seconds. After centrifuging for 5 minutes at 16 000 g, 250 μL of supernatant were transferred to an autosampler vial, which was made up with 250 μL of ammonium acetate buffer (AAC, 10 mM, pH 6.8) and shaken again.
For the processing of a tumour, it was admixed with 4 times the amount of methanol. […] After again being shaken, the tumour sample was ready for measurement.
The measurement of both matrix samples took place, lastly, on the HPLC-coupled, atmospheric pressure ionization/tandem mass spectrometer by means of a Turbo Ion Spray Interface (TISP) on an API4000 instrument from SCIEX. The m/z transitions measured were as follows: […]

## CC[C@H](C)[C@@H]([C@@H](CC(=O)N1CCC[C@H]1[C@H](OC)[C@@H](C)C(=O)N[C@@]1(C(=O)N2CCCCO2)C[C@@H]1c1ccccc1)OC)N(C)C(=O)[C@@H](NC(=O)[C@H](C(C)C)N(C)CCCC(=O)NNC(=O)CCCCCN1C(=O)CC(SC[C@H](N)C(=O)O)C1=O)C(C)C (stereo partly drawn) [Example 64, N-(4-{2-[6-(3-{[(2R)-2-Amino-2-carboxyethyl]sulphanyl}-2,5-dioxopyrrolidin-1-yl)hexanoyl]hydrazino}-4-oxobutyl)-N-methyl-L-valyl-N-[(3R,4S,5S)-3-methoxy-1-{(2S)-2-[(1R,2R)-1-methoxy-2-methyl-3-{[(1S,2R)-1-(1,2-oxazinan-2-ylcarbonyl)-2-phenylcyclopropyl]amino}-3-oxopropyl]pyrrolidin-1-yl}-5-methyl-1-oxoheptan-4-yl]-N-methyl-L-valinamide]
Caco-2 cells
  Papp (B-A): 2.5 nm/s
tubulin; 1 μM
  reduction in the polymerization rate: 41%
tubulin; concentration of toxophore 1 μM
  Tubulin polymerization in the presence of toxophore in [%]. Tubulin polymerization rate at 1 μM MMAF set at 100%: 120%
[1]
  exposure in plasma: identical to the exposure in plasma in animals with transfected tumours
